Measured values taken from PMC8474115 (Journal of Medicinal Chemistry, 2021).
pIC50, pKi: −log10 of the molar value. Structures can show the parent of a compound that is named as a salt. Where two headings read alike, the source gives them in different places.

What was measured:
COX-1 = target: T1, COX-1 (Homo sapiens, UniProt P23219); assay: Eurofins SafetyScreen panel; format: biochemical
T1 construct: Eurofins

ACE = target: T2, ACE (Oryctolagus cuniculus, UniProt P12822); assay: Eurofins SafetyScreen panel; format: biochemical, rabbit
T2 construct: Eurofins

Adrenergic α2A = target: T3, Adrenergic α2A (Homo sapiens, UniProt P08913); assay: Eurofins SafetyScreen panel; format: binding
T3 construct: Eurofins (contract screening, SafetyScreen panel) PP223
T3 sequence (P08913 1-465): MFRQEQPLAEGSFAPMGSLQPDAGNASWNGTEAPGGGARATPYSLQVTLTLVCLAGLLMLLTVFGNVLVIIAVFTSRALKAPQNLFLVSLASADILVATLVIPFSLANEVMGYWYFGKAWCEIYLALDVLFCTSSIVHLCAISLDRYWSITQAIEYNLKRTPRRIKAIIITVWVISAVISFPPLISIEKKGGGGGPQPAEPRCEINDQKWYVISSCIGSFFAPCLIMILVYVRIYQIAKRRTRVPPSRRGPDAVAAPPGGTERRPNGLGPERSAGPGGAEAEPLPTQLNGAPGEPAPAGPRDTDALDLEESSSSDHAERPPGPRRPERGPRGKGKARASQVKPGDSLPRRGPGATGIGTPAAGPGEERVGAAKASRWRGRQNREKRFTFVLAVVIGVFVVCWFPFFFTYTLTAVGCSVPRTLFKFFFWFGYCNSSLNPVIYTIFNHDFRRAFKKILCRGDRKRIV

Adrenergic β2 = target: T4, Adrenergic β2 (Homo sapiens, UniProt P07550); assay: Eurofins SafetyScreen panel; format: binding
T4 construct: Eurofins (contract screening, SafetyScreen panel) PP223

[1] = target: Ca Channel L-Type, Benzothiazepine (Rattus norvegicus, UniProt P22002); assay: Eurofins SafetyScreen panel; format: binding
[2] = target: Ca Channel L-Type, Dihydropyridine (Rattus norvegicus, UniProt P22002); assay: Eurofins SafetyScreen panel; format: binding
Chemokine CCR2 (IL-8RB) = target: T5, Chemokine CCR2 (IL-8RB) (Homo sapiens, UniProt P25025); assay: Eurofins SafetyScreen panel; format: binding; conditions: read-out: %inh
T5 construct: purchased Eurofins (Panlabs) SafetyScreen87 Panel

Dopamine D2L = target: T6, Dopamine D2L (Homo sapiens, UniProt P14416); assay: Eurofins SafetyScreen panel; format: binding
T6 construct: purchased Eurofins (Panlabs) SafetyScreen87 Panel

Dopamine D2S = target: T7, Dopamine D2S (Homo sapiens, UniProt P14416); assay: Eurofins SafetyScreen panel; format: binding
T7 construct: purchased Eurofins (Panlabs) SafetyScreen87 Panel

GABAB1A = target: T8, GABAB1A (Homo sapiens, UniProt Q9UBS5); assay: Eurofins SafetyScreen panel; format: binding
T8 construct: purchased Eurofins (Panlabs) SafetyScreen87 Panel

[3] = target: T9, Glutamate Metabotropic, mGlu5 (Homo sapiens, UniProt P41594); assay: Eurofins SafetyScreen panel; format: binding
T9 construct: purchased Eurofins (Panlabs) SafetyScreen87 Panel

Histamine H1 = target: T10, Histamine H1 (Homo sapiens, UniProt P35367); assay: Eurofins SafetyScreen panel; format: binding
T10 construct: Eurofins (contract screening, SafetyScreen panel) PP223

[4] = target: T11, Leukotriene, Cysteinyl CysLT1 (Homo sapiens, UniProt Q9Y271); assay: Eurofins SafetyScreen panel; format: binding
T11 construct: purchased Eurofins (Panlabs) SafetyScreen87 Panel

Muscarinic M2 = target: T12, Muscarinic M2 (Homo sapiens, UniProt P08172); assay: Eurofins SafetyScreen panel; format: binding
T12 construct: Eurofins (contract screening, SafetyScreen panel) PP223

Muscarinic M4 = target: T13, Muscarinic M4 (Homo sapiens, UniProt P08173); assay: Eurofins SafetyScreen panel; format: binding
T13 construct: Eurofins (contract screening, SafetyScreen panel) PP223

Serotonin 5-HT1B = target: T14, Serotonin 5-HT1B (Homo sapiens, UniProt P28222); assay: Eurofins SafetyScreen panel; format: binding
T14 construct: Eurofins (contract assay)

Serotonin 5-HT4 = target: T15, Serotonin 5-HT4 (Cavia porcellus, UniProt O70528); assay: Eurofins SafetyScreen panel; format: binding, guinea pig
T15 construct: Eurofins (contract assay) 272000

[5] = target: T16, Norepinephrine Transporter (NET) (Homo sapiens, UniProt P23975); assay: Eurofins SafetyScreen panel; format: binding
T16 construct: Eurofins (contract screening, SafetyScreen panel) PP223

[6] = target: T17, Serotonin Transporter (SERT) (Homo sapiens, UniProt P31645); assay: Eurofins SafetyScreen panel; format: binding
T17 construct: Eurofins (contract screening, SafetyScreen panel) PP223

Vasopressin V1A = target: T18, Vasopressin V1A (Homo sapiens, UniProt P37288); assay: Eurofins SafetyScreen panel; format: binding
T18 construct: Eurofins (contract screening, SafetyScreen panel) PP223

h5-HT1A = h5-HT1A (Homo sapiens, UniProt P08908); conditions: 5-HT1AR
Experimental: (§1) For membrane preparation, cells after reaching 90% confluence, were washed with phosphate-buffered saline (PBS), and pelleted by centrifugation (200 × g) in PBS containing 0.1 mM EDTA and 1 mM dithiothreitol.
(§2) The total reaction volume was 200 μL. The incubation process was terminated by filtration through UniFilter-96 (PerkinElmer) plates with the FilterMate Universal Harvester (PerkinElmer, #C961962), and radioactivity retained on the filters was quantified on a MicroBeta counter for radiometric detection (PerkinElmer). […] To evaluate the level of nonspecific signal 10 μM of 5-HT for 5-HT1AR and 5-HT7R, 20 μM of mianserin for 5-HT2AR, 10 μM of methiothepine for 5-HT6R and 10 μM of haloperidol for D2LR were used. […] The acquired results were presented as the mean of at least two independent experiments.

hD2L = hD2L (Homo sapiens, UniProt P14416); conditions: D2R
Experimental: as §1, §2

CYP1A2 = CYP1A2 (Homo sapiens, UniProt P05177); assay: Cytochrome P450 inhibition (Eurofins)
CYP2C19 = CYP2C19 (Homo sapiens, UniProt P33261); assay: Cytochrome P450 inhibition (Eurofins)
CYP3A4 = CYP3A4 (Homo sapiens, UniProt P08684); assay: Cytochrome P450 inhibition (Eurofins)
CYP2C9 = CYP2C9 (Homo sapiens, UniProt P11712); assay: Cytochrome P450 inhibition (Eurofins); conditions: at 10 μM; listed as 17, 10 µM
[7] = read-out: %inh, 10 μM, additional batch

T10 sequence (P35367 whole entry): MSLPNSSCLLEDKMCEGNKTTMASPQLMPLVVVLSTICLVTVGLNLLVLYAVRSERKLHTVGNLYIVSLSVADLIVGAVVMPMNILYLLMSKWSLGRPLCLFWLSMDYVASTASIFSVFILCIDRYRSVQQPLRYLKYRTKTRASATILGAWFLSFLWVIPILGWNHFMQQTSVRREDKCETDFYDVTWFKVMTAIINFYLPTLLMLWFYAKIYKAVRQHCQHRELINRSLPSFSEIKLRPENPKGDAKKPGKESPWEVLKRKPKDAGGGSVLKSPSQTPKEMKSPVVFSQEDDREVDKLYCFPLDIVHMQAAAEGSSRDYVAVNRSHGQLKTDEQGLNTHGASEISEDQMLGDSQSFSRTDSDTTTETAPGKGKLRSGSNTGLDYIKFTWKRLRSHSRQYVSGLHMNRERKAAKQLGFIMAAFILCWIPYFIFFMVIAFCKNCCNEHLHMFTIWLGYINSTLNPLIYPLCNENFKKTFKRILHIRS
Sequence of Ca Channel L-Type, Dihydropyridine (P22002 whole entry): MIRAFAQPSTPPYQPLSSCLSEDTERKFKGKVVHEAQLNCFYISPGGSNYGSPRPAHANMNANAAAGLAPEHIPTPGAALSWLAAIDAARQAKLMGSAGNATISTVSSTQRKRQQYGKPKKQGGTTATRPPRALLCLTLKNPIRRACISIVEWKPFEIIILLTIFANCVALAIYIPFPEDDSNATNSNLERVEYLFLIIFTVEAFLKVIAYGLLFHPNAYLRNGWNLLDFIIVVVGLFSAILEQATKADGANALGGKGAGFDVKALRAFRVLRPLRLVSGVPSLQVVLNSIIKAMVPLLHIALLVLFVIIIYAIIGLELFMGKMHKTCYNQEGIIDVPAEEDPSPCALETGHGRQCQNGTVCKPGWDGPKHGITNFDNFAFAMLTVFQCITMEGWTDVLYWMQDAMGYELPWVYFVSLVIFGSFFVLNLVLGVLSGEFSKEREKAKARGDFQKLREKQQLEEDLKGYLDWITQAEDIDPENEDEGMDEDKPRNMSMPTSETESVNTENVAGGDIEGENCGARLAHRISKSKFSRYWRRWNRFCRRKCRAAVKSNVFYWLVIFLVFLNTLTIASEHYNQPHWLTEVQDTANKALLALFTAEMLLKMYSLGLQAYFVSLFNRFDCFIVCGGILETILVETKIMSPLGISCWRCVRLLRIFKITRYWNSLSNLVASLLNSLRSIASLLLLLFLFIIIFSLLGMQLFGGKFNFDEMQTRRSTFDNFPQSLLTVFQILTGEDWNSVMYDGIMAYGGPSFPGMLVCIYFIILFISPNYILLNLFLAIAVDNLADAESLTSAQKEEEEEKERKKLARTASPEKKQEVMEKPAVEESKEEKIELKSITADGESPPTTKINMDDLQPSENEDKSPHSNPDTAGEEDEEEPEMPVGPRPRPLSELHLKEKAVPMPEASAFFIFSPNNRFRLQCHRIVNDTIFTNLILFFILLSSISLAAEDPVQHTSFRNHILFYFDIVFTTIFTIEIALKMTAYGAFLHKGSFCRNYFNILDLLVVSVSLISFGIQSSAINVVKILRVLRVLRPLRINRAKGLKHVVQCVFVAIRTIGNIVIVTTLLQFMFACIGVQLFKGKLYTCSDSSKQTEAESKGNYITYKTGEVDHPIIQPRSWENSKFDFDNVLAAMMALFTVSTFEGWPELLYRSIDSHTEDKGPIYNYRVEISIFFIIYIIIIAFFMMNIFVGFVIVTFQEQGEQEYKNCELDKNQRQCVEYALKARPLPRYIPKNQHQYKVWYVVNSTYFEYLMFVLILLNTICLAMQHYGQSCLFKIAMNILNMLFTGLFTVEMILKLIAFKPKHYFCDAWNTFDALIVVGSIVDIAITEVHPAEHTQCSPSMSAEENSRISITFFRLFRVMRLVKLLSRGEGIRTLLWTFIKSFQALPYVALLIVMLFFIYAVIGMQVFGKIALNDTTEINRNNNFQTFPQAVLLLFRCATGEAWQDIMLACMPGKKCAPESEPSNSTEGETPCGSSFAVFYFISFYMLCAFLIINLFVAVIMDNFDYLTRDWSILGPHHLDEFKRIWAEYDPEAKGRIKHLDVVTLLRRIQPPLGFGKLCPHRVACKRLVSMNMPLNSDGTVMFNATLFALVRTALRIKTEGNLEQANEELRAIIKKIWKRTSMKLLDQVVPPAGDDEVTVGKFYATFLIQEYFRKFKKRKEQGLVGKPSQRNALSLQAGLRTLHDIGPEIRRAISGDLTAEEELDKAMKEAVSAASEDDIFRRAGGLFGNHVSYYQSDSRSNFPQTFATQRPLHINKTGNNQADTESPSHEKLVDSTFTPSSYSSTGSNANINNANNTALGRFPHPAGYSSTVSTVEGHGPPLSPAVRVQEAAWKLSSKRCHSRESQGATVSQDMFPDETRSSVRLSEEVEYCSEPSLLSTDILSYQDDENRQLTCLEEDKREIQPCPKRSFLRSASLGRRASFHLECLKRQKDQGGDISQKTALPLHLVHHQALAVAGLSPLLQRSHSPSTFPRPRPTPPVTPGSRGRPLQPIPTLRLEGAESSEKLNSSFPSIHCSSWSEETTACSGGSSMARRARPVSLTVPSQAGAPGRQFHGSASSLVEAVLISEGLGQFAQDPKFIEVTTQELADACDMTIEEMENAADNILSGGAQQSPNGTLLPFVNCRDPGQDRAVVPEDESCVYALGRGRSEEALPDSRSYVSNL
Sequence of Ca Channel L-Type, Benzothiazepine (P22002 whole entry): as above
T14 sequence (P28222 whole entry): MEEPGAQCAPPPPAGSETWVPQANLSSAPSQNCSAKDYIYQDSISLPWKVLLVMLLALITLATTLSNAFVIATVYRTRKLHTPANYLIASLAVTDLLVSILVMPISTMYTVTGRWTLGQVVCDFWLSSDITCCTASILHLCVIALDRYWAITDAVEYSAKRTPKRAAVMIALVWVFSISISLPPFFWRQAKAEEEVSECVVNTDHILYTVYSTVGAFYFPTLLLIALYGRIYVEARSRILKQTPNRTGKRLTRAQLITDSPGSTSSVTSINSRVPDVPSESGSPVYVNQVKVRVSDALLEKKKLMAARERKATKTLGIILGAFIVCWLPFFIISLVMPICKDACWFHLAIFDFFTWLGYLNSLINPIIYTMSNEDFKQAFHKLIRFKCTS
T16 sequence (P23975 whole entry): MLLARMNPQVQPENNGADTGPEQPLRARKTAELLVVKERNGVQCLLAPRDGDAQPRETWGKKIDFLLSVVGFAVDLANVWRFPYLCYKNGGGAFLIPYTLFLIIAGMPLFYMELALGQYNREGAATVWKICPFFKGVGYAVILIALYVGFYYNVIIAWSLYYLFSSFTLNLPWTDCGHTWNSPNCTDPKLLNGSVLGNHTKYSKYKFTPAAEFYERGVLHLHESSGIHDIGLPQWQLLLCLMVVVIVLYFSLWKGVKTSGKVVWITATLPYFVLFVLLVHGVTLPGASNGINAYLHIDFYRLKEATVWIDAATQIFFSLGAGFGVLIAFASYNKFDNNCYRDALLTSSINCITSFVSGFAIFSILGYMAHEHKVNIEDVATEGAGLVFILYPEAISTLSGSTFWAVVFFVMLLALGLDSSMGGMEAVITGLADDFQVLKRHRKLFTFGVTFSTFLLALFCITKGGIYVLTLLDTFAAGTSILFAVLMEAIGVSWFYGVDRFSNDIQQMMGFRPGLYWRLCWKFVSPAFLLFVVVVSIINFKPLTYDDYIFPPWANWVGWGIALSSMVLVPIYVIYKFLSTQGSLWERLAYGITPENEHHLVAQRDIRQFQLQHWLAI
T4 sequence (P07550 whole entry): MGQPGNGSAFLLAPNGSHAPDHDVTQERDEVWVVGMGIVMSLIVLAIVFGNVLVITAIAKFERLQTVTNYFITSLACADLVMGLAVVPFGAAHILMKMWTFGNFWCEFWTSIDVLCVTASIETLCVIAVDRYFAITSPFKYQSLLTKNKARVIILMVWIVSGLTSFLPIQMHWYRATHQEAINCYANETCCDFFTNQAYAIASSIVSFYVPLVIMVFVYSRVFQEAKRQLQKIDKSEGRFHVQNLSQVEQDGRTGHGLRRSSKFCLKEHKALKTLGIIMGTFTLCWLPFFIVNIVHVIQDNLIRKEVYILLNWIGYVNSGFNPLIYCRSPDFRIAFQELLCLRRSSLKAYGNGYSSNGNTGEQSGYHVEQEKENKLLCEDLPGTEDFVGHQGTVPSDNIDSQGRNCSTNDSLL
T17 sequence (P31645 whole entry): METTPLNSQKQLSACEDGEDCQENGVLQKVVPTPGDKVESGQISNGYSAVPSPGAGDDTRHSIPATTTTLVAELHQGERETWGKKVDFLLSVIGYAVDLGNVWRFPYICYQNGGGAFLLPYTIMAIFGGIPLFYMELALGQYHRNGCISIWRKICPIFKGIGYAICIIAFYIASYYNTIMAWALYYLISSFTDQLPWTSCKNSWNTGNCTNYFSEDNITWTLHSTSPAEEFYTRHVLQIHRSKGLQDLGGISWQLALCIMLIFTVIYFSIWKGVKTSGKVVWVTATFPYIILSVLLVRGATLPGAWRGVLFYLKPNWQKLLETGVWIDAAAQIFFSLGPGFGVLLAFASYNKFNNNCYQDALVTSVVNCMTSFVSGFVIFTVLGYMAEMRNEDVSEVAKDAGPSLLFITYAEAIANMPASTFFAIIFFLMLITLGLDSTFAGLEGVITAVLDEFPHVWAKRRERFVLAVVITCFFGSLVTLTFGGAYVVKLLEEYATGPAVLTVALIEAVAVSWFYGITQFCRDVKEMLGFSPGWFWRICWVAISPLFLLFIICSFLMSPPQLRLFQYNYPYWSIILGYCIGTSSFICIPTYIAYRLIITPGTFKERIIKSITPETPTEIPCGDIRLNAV

O=S(=O)(c1cccc(F)c1)n1ccc2c(N3CCNCC3)nc3ccccc3c21 [FPPQ, 1-[(3-Fluorophenyl)sulfonyl]-4-(piperazin-1-yl)-1H-pyrrolo[3,2-c]quinoline dihydrochloride]
inhibition at 10 µM (COX-1): -6% | inhibition at 10 µM (ACE): -9% | pIC50 (Adrenergic α2A): 6.66 | pKi (Adrenergic α2A): 6.96 | inhibition at 0.01 µM (Adrenergic α2A; read-out: %inh, 10 nM): 5% | inhibition at 0.1 µM (Adrenergic α2A; read-out: %inh, 0.1 μM): 32% | inhibition at 1 µM (Adrenergic α2A; read-out: %inh, 1 μM): 80% | inhibition at 10 µM (Adrenergic α2A; read-out: %inh, 10 μM): 97% | inhibition at 10 µM (Adrenergic α2A; [7]): 98% | pIC50 (Adrenergic β2): 6.92 | pKi (Adrenergic β2): 7.07 | inhibition at 0.01 µM (Adrenergic β2; 10 nM): 9% | inhibition at 0.1 µM (Adrenergic β2; 0.1 μM): 43% | inhibition at 1 µM (Adrenergic β2; 1 μM): 93% | inhibition at 10 µM (Adrenergic β2): 103% | inhibition at 10 µM (Adrenergic β2; additional batch): 99% | inhibition at 0.01 µM ([1]; 10 nM): -3% | inhibition at 1 µM ([1]; 1 μM): 46% | inhibition at 10 µM [1]: 83% | inhibition at 10 µM ([1]; additional batch): 92% | inhibition at 0.01 µM ([2]; 10 nM): -4% | inhibition at 0.1 µM ([2]; 0.1 μM): 3% | inhibition at 1 µM ([2]; 1 μM): 60% | inhibition at 10 µM [2]: 89% | inhibition at 10 µM ([2]; additional batch): 78% | inhibition at 10 µM (Chemokine CCR2 (IL-8RB)): 21% | inhibition at 10 µM (Dopamine D2L): 46% | inhibition at 10 µM (Dopamine D2S): 46% | inhibition at 10 µM (GABAB1A): 13% | inhibition at 10 µM [3]: 16% | pIC50 (Histamine H1): 6.34 | pKi (Histamine H1): 6.66 | inhibition at 0.01 µM (Histamine H1; read-out: %inh, 10 nM): 4% | inhibition at 0.1 µM (Histamine H1; read-out: %inh, 0.1 μM): 19% | inhibition at 1 µM (Histamine H1; read-out: %inh, 1 μM): 67% | inhibition at 10 µM (Histamine H1; read-out: %inh, 10 μM): 97% | inhibition at 10 µM (Histamine H1; [7]): 98% | inhibition at 10 µM [4]: 10% | inhibition at 10 µM (Muscarinic M2): 5% | inhibition at 10 µM (Muscarinic M4): 8% | pIC50 (Serotonin 5-HT1B): 5.93 | pKi (Serotonin 5-HT1B): 6.05 | inhibition at 0.01 µM (Serotonin 5-HT1B; read-out: %inh, 10 nM): 5% | inhibition at 0.1 µM (Serotonin 5-HT1B; read-out: %inh, 0.1 μM): 4% | inhibition at 1 µM (Serotonin 5-HT1B; read-out: %inh, 1 μM): 47% | inhibition at 10 µM (Serotonin 5-HT1B; read-out: %inh, 10 μM): 90% | inhibition at 10 µM (Serotonin 5-HT1B; [7]): 92% | inhibition at 10 µM (Serotonin 5-HT4): 30% | pIC50 [5]: 5.90 | pKi [5]: 5.91 | inhibition at 0.01 µM ([5]; read-out: %inh, 10 nM): 1% | inhibition at 0.1 µM ([5]; read-out: %inh, 0.1 μM): 8% | inhibition at 1 µM ([5]; read-out: %inh, 1 μM): 42% | inhibition at 10 µM ([5]; read-out: %inh, 10 μM): 94% | inhibition at 10 µM [5, 7]: 96% | inhibition at 10 µM [6]: 18% | inhibition at 10 µM (Vasopressin V1A): -18% | pKi (h5-HT1A): 6.36 | pKi (hD2L): 5.36 | pIC50 (CYP1A2): 4.92 | pIC50 (CYP2C19): 5.00 | pIC50 (CYP3A4): 4.24 | cytochrome P450 inhibition 2C9 (CYP2C9): < 25% inh at 10 uM
